Results reported in patent US20120309734A1, “COMBRETASTATIN DERIVATIVES AND USES THEREFOR” (priority 2009, published 2012).
Read-outs that look alike come from different tables or passages of the source.

Legend:
[1] = biological target: T1, purified human liver cathepsin-L (Homo sapiens, UniProt P07711); experiment: Fluorogenic cathepsin-L activity kit; assay type: biochemical; settings: FIG. 2
T1 construct: uses purified human liver cathepsin-L as the source of the cathepsin; purchased calbiochem; host or cells: human liver
Method: Cathepsin L activity was measured using the fluorogenic cathepsin-L activity kit from calbiochem which uses purified human liver cathepsin-L as the source of the cathepsin. […] Values represent the mean+/−range of two separate experiments each carried out in duplicate.

[2] = test system: human chronic myeloid leukaemia K562 cells; experiment: MTT cell viability assay; assay type: cell-based; settings: read-out: Inhibition of cell viability (IC50 value, nM) K562
[3] = test system: normal mouse mammary epithelial cells; experiment: Viability of normal mammary epithelial cells; assay type: cell-based; settings: 72 hr treatment
[4] = test system: human promyelocytic leukaemia HL-60 cells; experiment: MTT cell viability assay; assay type: cell-based; settings: read-out: Inhibition of cell viability (IC50 value, nM) HL-60
[5] = test system: normal mouse mammary epithelial cells; experiment: Viability of normal mammary epithelial cells; assay type: cell-based
Method: The maximum toxicity elicited by these drugs on normal cells at a concentration of 10 nM was only 8% (see Table 4).

[6] = test system: MCF-7 breast cancer cell line; experiment: Antiproliferation study, MTT cell viability assay; assay type: cell-based; settings: Homo sapiens
Method: All assays were performed in triplicate for the determination of mean values reported. Compounds were assayed as the free bases isolated from reaction. The human breast tumour cell line MCF-7 was cultured in Eagles minimum essential medium in a […] atmosphere with 10% fetal bovine serum, 2 mM L-glutamine and 100 μg/mL penicillin/streptomycin. The medium was supplemented with 1% non-essential amino acids. MDA-MB-231 cells were maintained in Dulbecco's Modified Eagle's medium (DMEM), supplemented with 10% (v/v) Fetal bovine serum, 2 mM L-glutamine and 100 μg/mL penicillin/streptomycin (complete medium). Cells were trypsinised and seeded at a density of 2.5×10^4 cells/ml in a 96-well plate and incubated at 37° C., […] atmosphere for 24 h. […] Control wells contained the equivalent volume of the vehicle ethanol (1% v/v). The culture medium was then removed and the cells washed with 100 μL phosphate buffered saline (PBS) and 50 μL MTT added, to reach a final concentration of 1 mg/mL MTT added. Cells were incubated for 2 h in darkness at 37° C. At this point solubilization was begun through the addition of 200 μL DMSO and the cells maintained at room temperature in darkness for 20 min to ensure thorough colour diffusion before reading the absorbance. The absorbance value of control cells (no added compound) was set to 100% cell viability and from this graphs of absorbance versus cell density per well were prepared to assess cell viability and from these, graphs of percentage cell viability versus concentration of subject compound added were drawn.

MDA-MB-231 cells [7] = experiment: Antiproliferation study, MTT cell viability assay; assay type: cell-based; settings: Homo sapiens, read-out: antiproliferative effects, MDA-MB-231
Method: All assays were performed in triplicate for the determination of mean values reported. Compounds were assayed as the free bases isolated from reaction. The human breast tumour cell line MCF-7 was cultured in Eagles minimum essential medium in a […] atmosphere with 10% fetal bovine serum, 2 mM L-glutamine and 100 μg/mL penicillin/streptomycin. The medium was supplemented with 1% non-essential amino acids. MDA-MB-231 cells were maintained in Dulbecco's Modified Eagle's medium (DMEM), supplemented with 10% (v/v) Fetal bovine serum, 2 mM L-glutamine and 100 μg/mL penicillin/streptomycin (complete medium). […] At this point solubilization was begun through the addition of 200 μL DMSO and the cells maintained at room temperature in darkness for 20 min to ensure thorough colour diffusion before reading the absorbance. The absorbance value of control cells (no added compound) was set to 100% cell viability and from this graphs of absorbance versus cell density per well were prepared to assess cell viability and from these, graphs of percentage cell viability versus concentration of subject compound added were drawn.
(§1) MDA-MB-231 cells were treated with vehicle (1% (v/v) ethanol) or 10 nM, 100 nM, 1 μM and 10 μM (final concentrations) of 25. Cells were harvested after 24, 48 or 72 hours and analysed for DNA content by flow cytometry.

MDA-MB-231 cells [8] = experiment: Cell cycle analysis by flow cytometry (PI); assay type: cell-based, human
Method: The MDA-MB-231 cells were seeded at a density of 18×10^4 cells/mL in 5 mL of medium (900,000 cells per flask). After 24 hours the control was treated with 50 μL of ethanol (1% v/v) and selected compound dosed at range 10 nM-10 μM (final concentration, 1% v/v). They were incubated for 72 hours. Following incubation, the cells were removed from the bottom of the flask by scraping and the medium placed in a 20 mL sterilin. They were centrifuged for 10 minutes at 600×g. The supernatant was decanted and the pellet resuspended in 1 mL of ice-cold PBS; cells were again centrifuged for 10 minutes at 600×g. The supernatant was decanted and the pellet resuspended in 200 μL of ice-cold phosphate buffer saline (PBS). Subsequently ice-cold 70% ethanol (2 mL) was slowly added to the tube as it was gently vortexed. The cells were kept at −20° C. for at least one hour. After the fixation 5 μL of FBS was added to the samples. The cells were harvested by centrifugation at 600×g for 10 mins. The ethanol was carefully removed and the pellet resuspended in 400 μL of PBS and transferred to FACS microtubes. A 25 μL aliquot of RNase A (1 mg/mL) and 75 μL of propidium iodide (PI) 1 mg/mL, a DNA binding fluorescent dye, was added to each tube. The samples were wrapped in aluminium foil and incubated for a minimum of 30 min at 37° C. The samples were read at 488 nm using FACscalibur flow cytometer from Becton Dickinson. The FACS data for 10,000 cells was analysed using the Macintosh-based application Cellquest and the data was stored as frequency histograms.
as §1

[9] = test system: purified bovine brain tubulin; experiment: Tubulin polymerization assay (turbidity); assay type: biochemical
Method: The effect of compounds on the assembly of purified bovine brain tubulin was determined spectrophotometrically by monitoring the change in turbidity. This assay used a 96-well plate format with 300 μg of >99% purified bovine brain tubulin in each well. […] 10 μl of 10× strength of each compound tested was pipetted into a half area 96-well plate prewarmed to 37° C. A 100 μl volume of tubulin was then pipetted into the prewarmed plate. Samples were mixed well and tubulin assembly was monitored at an A340 nm at 30 second intervals for 60 minutes at 37° C. in a Spectromax 340PC spectrophotometer (Molecular Devices).

[10] = MCF7, 72 h, antiproliferative activity, MTT, 72 h, read-out: IC50 (μM) MCF-7 cell line

T1 sequence (P07711 114-333): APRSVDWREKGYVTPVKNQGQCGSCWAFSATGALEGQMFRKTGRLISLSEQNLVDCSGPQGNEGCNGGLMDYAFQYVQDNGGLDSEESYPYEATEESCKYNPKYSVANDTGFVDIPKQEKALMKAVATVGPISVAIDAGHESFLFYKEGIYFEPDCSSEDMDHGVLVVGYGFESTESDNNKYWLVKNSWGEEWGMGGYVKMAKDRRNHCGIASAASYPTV

COc1ccc(C2C(c3ccc(O)cc3)C(=O)N2c2cc(OC)c(OC)c(OC)c2)cc1O (stereo not drawn) [Compound 14, 4-(3-Hydroxy-4-methoxy-phenyl)-3-(4-hydroxy-phenyl)-1-(3,4,5-trimethoxy-phenyl)-azetidin-2-one]
inhibition of cathepsin-L activity [1]: inhibited cathepsin-L in the nanomolar range
IC50 [2]: 0.9 nM
Percent viability of normal mammary epithelial cells compared to control ([3]; 1 nM): 93.8%
Percent viability of normal mammary epithelial cells compared to control ([3]; 100 nM): 73.2%
Percent viability of normal mammary epithelial cells compared to control ([3]; 1 μM): 75.2%
Percent viability of normal mammary epithelial cells compared to control ([3]; 10 μM): 74.8%
IC50 [4]: 0.4 nM
Percent viability of normal mammary epithelial cells compared to control ([5]; 10 nM, 72 hr treatment): 90%
effects on normal mammary epithelial cells ([5]; up to 10 μM): minimal effects
melting point: 152 °C
IC50 [6, 10]: 0.0008 µM
IC50 ([6]; MCF7, MTT cell viability assay, read-out: Inhibition of cell viability (IC50 value, nM) MCF-7): 0.0008 to 0.0031 µM

COc1ccc(C2CC(=O)N2c2cc(OC)c(OC)c(OC)c2)cc1O (stereo not drawn) [Compound 25]
IC50 (MDA-MB-231 cells [7]): 54 nM
G1 (%) (MDA-MB-231 cells [8]; 10 nM, 24 hours): 48.33 ± 4.18%
G2/M (%) (MDA-MB-231 cells [8]; 10 nM, 24 hours): 25.61 ± 0.98%
M5 (%) (MDA-MB-231 cells [8]; 10 nM, 24 hours): 2.84 ± 0.59%
S (%) (MDA-MB-231 cells [8]; 10 nM, 24 hours): 12.55 ± 2.54%
Sub-G1 (%) (MDA-MB-231 cells [8]; 10 nM, 24 hours): 3.72 ± 1.97%
G1 (%) (MDA-MB-231 cells [8]; 10 nM, 48 hours): 45.25 ± 7.37%
G2/M (%) (MDA-MB-231 cells [8]; 10 nM, 48 hours): 23.71 ± 7.81%
M5 (%) (MDA-MB-231 cells [8]; 10 nM, 48 hours): 6.10 ± 0.62%
S (%) (MDA-MB-231 cells [8]; 10 nM, 48 hours): 13.36 ± 2.58%
Sub-G1 (%) (MDA-MB-231 cells [8]; 10 nM, 48 hours): 11.57 ± 3.06%
G1 (%) (MDA-MB-231 cells [8]; 10 nM, 72 hours): 48.24 ± 2.79%
G2/M (%) (MDA-MB-231 cells [8]; 10 nM, 72 hours): 17.68 ± 4.58%
M5 (%) (MDA-MB-231 cells [8]; 10 nM, 72 hours): 3.55 ± 1.57%
S (%) (MDA-MB-231 cells [8]; 10 nM, 72 hours): 9.08 ± 2.32%
Sub-G1 (%) (MDA-MB-231 cells [8]; 10 nM, 72 hours): 15.25 ± 2.03%
G1 (%) (MDA-MB-231 cells [8]; 100 nM, 24 hours): 18.95 ± 6.60%
G2/M (%) (MDA-MB-231 cells [8]; 100 nM, 24 hours): 59.43 ± 3.13%
M5 (%) (MDA-MB-231 cells [8]; 100 nM, 24 hours): 4.87 ± 4.39%
S (%) (MDA-MB-231 cells [8]; 100 nM, 24 hours): 6.05 ± 0.38%
Sub-G1 (%) (MDA-MB-231 cells [8]; 100 nM, 24 hours): 4.88 ± 0.85%
G1 (%) (MDA-MB-231 cells [8]; 100 nM, 48 hours): 10.76 ± 0.34%
G2/M (%) (MDA-MB-231 cells [8]; 100 nM, 48 hours): 36.42 ± 3.42%
M5 (%) (MDA-MB-231 cells [8]; 100 nM, 48 hours): 4.61 ± 0.86%
S (%) (MDA-MB-231 cells [8]; 100 nM, 48 hours): 8.90 ± 0.85%
Sub-G1 (%) (MDA-MB-231 cells [8]; 100 nM, 48 hours): 37.50 ± 0.71%
G1 (%) (MDA-MB-231 cells [8]; 100 nM, 72 hours): 13.90 ± 3.62%
G2/M (%) (MDA-MB-231 cells [8]; 100 nM, 72 hours): 12.62 ± 9.22%
M5 (%) (MDA-MB-231 cells [8]; 100 nM, 72 hours): 2.99 ± 1.89%
S (%) (MDA-MB-231 cells [8]; 100 nM, 72 hours): 5.34 ± 4.32%
Sub-G1 (%) (MDA-MB-231 cells [8]; 100 nM, 72 hours): 63.10 ± 20.06%
G1 (%) (MDA-MB-231 cells [8]; 1 μM, 24 hours): 19.22 ± 6.19%
G2/M (%) (MDA-MB-231 cells [8]; 1 μM, 24 hours): 63.16 ± 4.86%
M5 (%) (MDA-MB-231 cells [8]; 1 μM, 24 hours): 4.31 ± 3.17%
S (%) (MDA-MB-231 cells [8]; 1 μM, 24 hours): 6.01 ± 2.90%
Sub-G1 (%) (MDA-MB-231 cells [8]; 1 μM, 24 hours): 7.08 ± 4.20%
G1 (%) (MDA-MB-231 cells [8]; 1 μM, 72 hours): 14.29 ± 2.20%
G2/M (%) (MDA-MB-231 cells [8]; 1 μM, 72 hours): 21.24 ± 12.05%
M5 (%) (MDA-MB-231 cells [8]; 1 μM, 72 hours): 5.97 ± 4.71%
S (%) (MDA-MB-231 cells [8]; 1 μM, 72 hours): 7.76 ± 0.58%
Sub-G1 (%) (MDA-MB-231 cells [8]; 1 μM, 72 hours): 50.53 ± 14.78%
G1 (%) (MDA-MB-231 cells [8]; 10 μM, 24 hours): 29.30 ± 5.95%
G2/M (%) (MDA-MB-231 cells [8]; 10 μM, 24 hours): 55.36 ± 1.49%
M5 (%) (MDA-MB-231 cells [8]; 10 μM, 24 hours): 3.85 ± 3.83%
S (%) (MDA-MB-231 cells [8]; 10 μM, 24 hours): 3.72 ± 0.71%
Sub-G1 (%) (MDA-MB-231 cells [8]; 10 μM, 24 hours): 3.18 ± 0.25%
G1 (%) (MDA-MB-231 cells [8]; 10 μM, 48 hours): 14.44 ± 2.28%
G2/M (%) (MDA-MB-231 cells [8]; 10 μM, 48 hours): 27.25 ± 4.45%
M5 (%) (MDA-MB-231 cells [8]; 10 μM, 48 hours): 2.28 ± 0.06%
S (%) (MDA-MB-231 cells [8]; 10 μM, 48 hours): 4.47 ± 0.06%
Sub-G1 (%) (MDA-MB-231 cells [8]; 10 μM, 48 hours): 51.27 ± 6.31%
G1 (%) (MDA-MB-231 cells [8]; 10 μM, 72 hours): 17.14 ± 3.31%
G2/M (%) (MDA-MB-231 cells [8]; 10 μM, 72 hours): 21.81 ± 12.40%
M5 (%) (MDA-MB-231 cells [8]; 10 μM, 72 hours): 3.38 ± 2.84%
S (%) (MDA-MB-231 cells [8]; 10 μM, 72 hours): 9.66 ± 1.84%
Sub-G1 (%) (MDA-MB-231 cells [8]; 10 μM, 72 hours): 46.49 ± 17.49%
IC50 [6, 10]: 0.017 µM
IC50 ([6]; MCF7, read-out: antiproliferative effects, MCF-7): 0.017 µM
X-fold inhibition of tubulin polymerisation (Vmax ± SEM) ([9]; 1 μM): 1.1 ± 0.2 fold
X-fold inhibition of tubulin polymerisation (Vmax ± SEM) ([9]; 10 μM): 10.2 ± 2.3 fold
